From patent publication US4894225A (priority 1987, dated 1990) come the findings set out here.

The test system of this data set is MX-1 tumors (human breast adenocarcinoma-derived tumor cell line). The conditions noted are these: in vivo.

On to `O=P1(N(CCCl)CCCl)NCCCO1` (stereo not shown) [cytoxan], for which the “% TGI (tumor growth inhibition vs PBS)” value amounted to 90.5%, the deaths was 0/5, the “ΔBW (change in body weight)” value was determined as 1.11 and the “ΔTW (change in tumor weight)” value stood at 2.4.
